Results reported in patent US8815830B2, “Nucleosides with antiviral and anticancer activity” (Regents of the University of Minnesota, priority 2004, dated 2014).

System: CCRF-CEM cells
Assay: Test C: anti-cancer assay, CCRF-CEM cell viability by MTS reagent
Assay type: cell-based, human
Conditions: 48 hr incubation at 37° C., MTS reagent 4 hr, absorbance at 490 nm, triplicate
Method: The anti-cancer properties of the compounds of the invention can be evaluated using the following assay.
CCRF-CEM cells were grown in medium containing RPMI 1640 supplemented with 10% heat-inactivated fetal bovine serum, penicillin (124 units/ml of medium) and streptomycin (0.125 mg/ml of medium). A stock solution of […] was made using Trypan Blue Dye Exclusion Method as a means of counting the cells. The following concentrations of test compounds were made: 250, 200, 100, 10, 1, 0.1, 0.01 and 0.001 μM. The cell stock (50 μl, 5×10^4 cells) was incubated with 50 μl of each of the compounds in triplicate in a 96-well plate. The cells were incubated with the compound at 37° C. in a 10% CO2-90% air environment for 48 hr. A negative control was also done where the cells were incubated in drug-free medium.
Cell viability was determined by adding 20 μl of MTS reagent and incubating the cells for 4 hr after which the absorbance was found at 490 nm.

IC50: 384 ± 134 µM
Structure (SMILES): Nc1ncnc2c1ncn2[C@@H]1O[C@H](CO)[C@@H](O)[C@@H]1O [Ara-A, 9-beta-D-arabinofuranosyladenosine]
